Patent publication US12440567B2, “Aqueous antibody formulation stabilized by antioxidants for parenteral administration” (AMGEN INC., priority 2007, dated 2025)

Key:
[1] = Color change of the antioxidant upon light; type: physicochemical
Source text: P-amino benzoic acid (PABA) has a relatively powerful antioxidant effect.

[2] = PABA: doses as high as 12 grams per day; cited from earlier work
Antibody A (IgG1) = experiment: SEC-HPLC aggregation of Antibody A (IgG1) after UV-B exposure; type: physicochemical; details: Antibody A 1 mg/mL pH 5.00
Experimental: The SEC-HPLC conditions were as follows: a G3000 TOSOH SWXL column was used and the flowrate was set at 0.5 mL/min. […] For both IgG1 and IgG2, the mobile phase was 80 mM sodium phosphate, 300 mM sodium perchlorate, 10% isopropanol, pH 7.2, and each sample was run for 45 minutes.
For FIG. 5, the anti-streptavidin formulation was prepared having the following characteristics: 1 mg/mL anti-streptavidin mAb (IgG2), 10 mM sodium acetate, 5% sorbitol, and pH 5.00. For FIG. 6, the Antibody A formulation was prepared having the following characteristics: 1 mg/mL Antibody A (IgG1), 10 mM sodium acetate, 9% sucrose, and pH 5.20.

Antibody A [3] = experiment: Discoloration (yellowing) of Antibody A formulations after UV-B exposure; type: physicochemical; details: 10 mM additive alone; UV-B light 24 hours
Source text: Discoloration can be assessed visually or by measurement of absorbance at a specific wavelength.
Proteins may also become yellow in color following exposure to UV light.
Pyridoxine is another water soluble B-vitamin (B6) which was studied as a possible antioxidant for preventing protein aggregation caused by UV-B exposure.

EPO = details: 10 mM additive, 0.06% H2O2, 24 hours, room temperature
Experimental: An exemplary protocol for Met-54 oxidation and peroxide assay is as follows. 0.6% hydrogen peroxide is added to 20 mM sodium phosphate solution containing 0.336 m/mL erythropoietin (EPO). Following 24 hours incubation at room temperature, 1 μg of the enzyme catalase is added to quench the excess hydrogen peroxide. 10 μL of 1M Tris solution pH 8.0 is added to 90 μL of EPO solution followed by addition of 2 μL of a 1 mg/mL trypsin solution. Samples are incubated overnight at room temperature. Peptides are separated using reverse phase HPLC (RP-HPLC). Peptides are identified by mass spectrometry (LC-MS). % Met-54 oxidation is calculated using peak areas determined by integration of UV chromatogram from RP-HPLC

[4] = tested on: Antibody B binding to protein A; experiment: Binding of Antibody B to protein A after UV-B exposure of the formulation; details: 20 mM additive; pH 6.90 phosphate buffer; 0-24 hours UV-B
Experimental: For the examples below involving exposure to UVB radiation, each sample was exposed to UVB light (λ≈302 nm) for varying times, using a UVP 8W model UVLMS-38 lamp at 4° C. The formulations were then analyzed using size exclusion chromatography high pressure liquid chromatography (SEC-HPLC). Aggregation (measured via SEC-HPLC analysis) and binding (measured using CM5 gold sensor chips) were measured to determine the effect of the antioxidant on aggregation and bioactivity of the therapeutic protein.
The binding activity of therapeutic protein to a ligand (e.g. to an antibody or binding partner, or, in cases where the therapeutic was an antibody, binding activity to the specific target antigen or to protein A) was determined as follows. […] The therapeutic protein-binding ligand of interest was injected until the desired immobilization level was achieved (above 5000 response units). Three different therapeutic protein-binding ligands were measured—Antibody A's target antigen, Protein A, and D11 (an antibody that binds to erythropoietin). […] The remaining activated groups were blocked with 1.0 M ethanolamine-HCl, pH 8.5.
A standard curve was prepared by using native forms of the therapeutic protein of interest. Native forms of the therapeutic protein were diluted in HBS-EP buffer (pH 7.4) to concentrations between 1 and 5 μg/mL, and then injected on the column, prepared as described above to obtain a standard curve. At the end of each sample run, regeneration buffer was used to wash away any bound therapeutic protein in preparation for subsequent injections.
Various UV-stressed antibody formulations were also diluted in HBS-EP buffer (pH 7.4) to a concentration within the standard curve region, and injected to quantitate the loss of bioactivity to its respective ligand-binding partner.

Antibody A [5] = details: 400 mM proline; 1% H2O2, 2 weeks
Experimental: Extreme conditions designed to greatly increase free radical generation include exposure to UVA and/or UVB light at 4° C. to 25° C. for 0.5 to 24 hours, or exposure to a 1% solution of hydrogen peroxide at 25° C. for 2 weeks, or exposure to 0.2 mM Fe-EDTA, 0.3% H2O2, and 1 mM ascorbate for 2 hours or longer at 37° C. Samples may alternatively be exposed to light providing an overall illumination of not less than 1.2 million lux hours and an integrated near UV energy of not less than 200 watt hours/square meter.

Q: Which “color change upon light” value [1] does the source give for `Nc1ccc(C(=O)O)cc1` [PABA, P-amino benzoic acid] here?
A: Its value is “changes to an orange-brown color upon light”.

Q: And the toxicity in humans [2]?
A: Its toxicity in humans is “without significant toxicity”.

Q: What about the “aggregation of Antibody A (SEC-HPLC)” value (Antibody A (IgG1); 20 mM PABA, UV 1, 2, or 3 hours) of the same compound?
A: Its value is “able to significantly reduce the amount of aggregation”.

Q: With `CSCC[C@H](N)C(=O)O` [methionine] as the compound, how does the “yellowing of Antibody A formulation” value (Antibody A [3]) read?
A: Its value is “significant yellowing”.

Q: And the “amount of Met-54 oxidation” value (EPO)?
A: Its value is “able to reduce the amount of EPO oxidation”.

Q: What about the “binding of Antibody B to protein A after UV-B exposure” value [4] of the same compound?
A: Its value is “not able to prevent this UV-B induced degradation”.

Q: For `O=C(O)[C@@H]1CCCN1` [proline], which “prevention of Antibody A aggregation caused by peroxide” value (Antibody A [5]) is on record?
A: The value was “stronger effect”.

Q: And the “protection of Antibody A from UV-B induced degradation (aggregation)” value (Antibody A (IgG1); 200 mM proline, UV 15 minutes)?
A: The value was “weak effect”.
